In patent US8394787B2, “7-aza-spiro[3.5]nonane-7-carboxylate derivatives, preparation thereof and therapeutic use thereof” (Sanofi, priority 2009, dated 2013):
Counter-ions that a name gives are not always drawn.

| melting point [°C] | SMILES |
| --- | --- |
| 130 to 132 | CNC(=O)c1csc(COC(=O)N2CCC3(CC2)CC(Oc2cccc(-c4ccc(F)cc4)c2)C3)n1 [Compound 20, 4-methylcarbamoyl-thiazol-2-ylmethyl 2-(4′-fluorobiphenyl-3-yloxy)-7-aza-spiro[3.5]nonane-7-carboxylate] |
| 79 to 81 | CNC(=O)c1cc(COC(=O)N2CCC3(CC2)CC(Oc2ccc4ccncc4c2)C3)on1 [Compound 21, 3-methylcarbamoyl-isoxazol-5-ylmethyl 2-(isoquinolin-7-yloxy)-7-aza-spiro[3.5]nonane-7-carboxylate] |
| 147 to 149 | CNC(=O)c1cc(COC(=O)N2CCC3(CC2)CC(Oc2ccc(Cl)cc2)C3)on1 [Compound 3, 3-methylcarbamoyl-isoxazol-5-ylmethyl 2-(4-chlorophenoxy)-7-aza-spiro[3.5]nonane-7-carboxylate] |
| 94 to 97 | CNC(=O)c1cc(COC(=O)N2CCC3(CC(Oc4ccc(Cl)cc4)C3)C2)on1 (single isomer, unassigned) |
| 107 to 108 | CNC(=O)c1cc(COC(=O)N2CCC3(CC2)CC(Oc2ccc(Cl)c(F)c2)C3)on1 [Compound 22, 3-methylcarbamoyl-isoxazol-5-ylmethyl 2-(4-chloro-3-fluorophenoxy)-7-aza-spiro[3.5]nonane-7-carboxylate] |
| 163 to 165 | NC(=O)c1cc(COC(=O)N2CCC3(CC2)CC(Oc2ccc(-c4ccc(F)cc4)cc2)C3)on1 [Compound 18, 3-carbamoyl-isoxazol-5-ylmethyl 2-(4′-fluorobiphenyl-4-yloxy)-7-aza-spiro[3.5]nonane-7-carboxylate] |
| 62 to 64 | CNC(=O)c1cc(COC(=O)N2CCC3(CC2)CC(Oc2ccc(Cl)c4ccccc24)C3)on1 [Compound 17, 3-methylcarbamoyl-isoxazol-5-ylmethyl 2-(4-chloronaphthalen-1-yloxy)-7-aza-spiro[3.5]nonane-7-carboxylate] |
| 114 to 116 | CCOc1ccc2ccc(OC3CC4(CCN(C(=O)OCc5cc(C(N)=O)no5)CC4)C3)cc2c1 [Compound 13, 3-carbamoyl-isoxazol-5-ylmethyl 2-(7-ethoxynaphthalen-2-yloxy)-7-aza-spiro[3.5]nonane-7-carboxylate] |
| 131 to 133 | NC(=O)c1cc(COC(=O)N2CCC3(CC(Oc4ccc(-c5ccc(F)cc5)cc4)C3)C2)on1 (single isomer, unassigned) [Compound 28, 3-carbamoyl-isoxazol-5-ylmethyl 2-(4′-fluorobiphenyl-4-yloxy)-6-aza-spiro[3.4]octane-6-carboxylate] |
| 70 to 72 | NC(=O)c1cc(COC(=O)N2CCC3(CC2)CC(Oc2ccc(Cl)cc2)C3)on1 [Compound 4, 3-carbamoyl-isoxazol-5-ylmethyl 2-(4-chlorophenoxy)-7-aza-spiro[3.5]nonane-7-carboxylate] |
| 74 to 76 | NC(=O)c1cc(COC(=O)N2CCC3(CC2)CC(Oc2cccc(-c4ccc(F)cc4)c2)C3)on1 [Compound 12, 3-carbamoyl-isoxazol-5-ylmethyl 2-(4′-fluorobiphenyl-3-yloxy)-7-aza-spiro[3.5]nonane-7-carboxylate] |
| 73 to 75 | CCOc1ccc2ccc(OC3CC4(CCN(C(=O)OCc5cc(C(=O)NC)no5)CC4)C3)cc2c1 [Compound 8, 3-methylcarbamoyl-isoxazol-5-ylmethyl 2-(7-ethoxynaphthalen-2-yloxy)-7-aza-spiro[3.5]nonane-7-carboxylate] |

More lines, now with the values behind:

| SMILES | melting point [°C] |
| --- | --- |
| NC(=O)c1cc(COC(=O)N2CC3(CC(Oc4ccc(Cl)c(F)c4)C3)C2)on1 [Compound 24, 3-carbamoyl-isoxazol-5-ylmethyl 6-(4-chloro-3-fluorophenoxy)-2-aza-spiro[3.3]heptane-2-carboxylate] | 135 to 137 |
| Cn1ncnc1COC(=O)N1CCC2(CC1)CC(Oc1ccc(Cl)cc1)C2 (as salt: HCl) | 163 to 165 |
| O=C(OCc1cscn1)N1CCC2(CC1)CC(Oc1ccc(Cl)cc1)C2 | 86 to 88 |
| NC(=O)c1cc(COC(=O)N2CCC3(CC(Oc4ccc(Cl)c5ccccc45)C3)C2)on1 (single isomer, unassigned) [Compound 30, 3-carbamoyl-isoxazol-5-ylmethyl 2-(4-chloronaphthalen-1-yloxy)-6-aza-spiro[3.4]octane-6-carboxylate] | 149 to 150 |
| NC(=O)c1cc(COC(=O)N2CCC3(CC(Oc4ccc(Cl)c(F)c4)C3)C2)on1 (single isomer, unassigned) [Compound 26, 3-carbamoyl-isoxazol-5-ylmethyl 2-(4-chloro-3-fluorophenoxy)-6-aza-spiro[3.4]octane-6-carboxylate] | 83 to 92 |
| NC(=O)c1cc(COC(=O)N2CCC3(CC2)CC(Oc2ccc(Cl)c4ccccc24)C3)on1 [Compound 16, 3-carbamoyl-isoxazol-5-ylmethyl 2-(4-chloronaphthalen-1-yloxy)-7-aza-spiro[3.5]nonane-7-carboxylate] | 75 to 77 |
| NC(=O)c1coc(COC(=O)N2CCC3(CC(Oc4cccc(C(F)(F)F)c4)C3)C2)n1 (single isomer, unassigned) [Compound 14, 4-carbamoyl-oxazol-2-ylmethyl 2-(3-trifluoromethylphenoxy)-6-aza-spiro[3.4]octane-6-carboxylate] | 90 to 92 |
| CNC(=O)c1cc(COC(=O)N2CC3(CC(Oc4ccc(Cl)c(F)c4)C3)C2)on1 [Compound 23, 3-methylcarbamoyl-isoxazol-5-ylmethyl 6-(4-chloro-3-fluorophenoxy)-2-aza-spiro[3.3]heptane-2-carboxylate] | 84 to 86 |
| CNC(=O)c1cc(COC(=O)N2CCC3(CC(Oc4ccc(Cl)c5ccccc45)C3)C2)on1 (single isomer, unassigned) [Compound 31, 3-methylcarbamoyl-isoxazol-5-ylmethyl 2-(4-chloronaphthalen-1-yloxy)-6-aza-spiro[3.4]octane-6-carboxylate] | 87 to 92 |
